Laboratory results as given in patent publication US20200163943A1, “METHODS FOR TREATING DRAVET SYNDROME” (Cavion, Inc., priority 2017, published 2020).

Tests used:
α1I [1] = biological target: T1, α1I (Homo sapiens, UniProt Q9P0X4); test: α1I potency; assay type: cell-based
α1I + Kir = α1I + Kir (Homo sapiens, UniProt Q9P0X4); test: α1I + Kir potency; assay type: cell-based
α1I [2] = biological target: T1, α1I; test: α1I VC (voltage clamp) at set holding potentials; assay type: cell-based
hERG = hERG (Homo sapiens, UniProt Q12809); test: hERG counter-screen; assay type: biochemical
L-Type = L-Type calcium channel counter-screen; assay type: biochemical
N-Type = N-Type (Homo sapiens, UniProt Q00975); test: N-Type calcium channel counter-screen; assay type: biochemical
Na Channel = Na Channel counter-screen; assay type: biochemical
Panlabs = Panlabs selectivity panel
PGP = PGP (Homo sapiens, UniProt P08183); test: PGP substrate assay; assay type: in vitro ADME
Papp permeability = assay type: in vitro ADME; settings: not told
WAG/Rij = WAG/Rij in vivo model; settings: 10 mpk, @4 hr
Pharmacokinetics in rat = assay type: in vivo
Pharmacokinetics in dog = assay type: in vivo
[3] = Pharmacokinetics in monkey; assay type: in vivo
[4] = plasma, 10 mg/kg, PO (1% methylcellulose), 10 mpk
[5] = plasma, 1 mg/kg, PO (1% methylcellulose), 1 mpk
[6] = plasma, 3 mg/kg, PO (1% methylcellulose), 3 mpk

T1 sequence (Q9P0X4 whole entry): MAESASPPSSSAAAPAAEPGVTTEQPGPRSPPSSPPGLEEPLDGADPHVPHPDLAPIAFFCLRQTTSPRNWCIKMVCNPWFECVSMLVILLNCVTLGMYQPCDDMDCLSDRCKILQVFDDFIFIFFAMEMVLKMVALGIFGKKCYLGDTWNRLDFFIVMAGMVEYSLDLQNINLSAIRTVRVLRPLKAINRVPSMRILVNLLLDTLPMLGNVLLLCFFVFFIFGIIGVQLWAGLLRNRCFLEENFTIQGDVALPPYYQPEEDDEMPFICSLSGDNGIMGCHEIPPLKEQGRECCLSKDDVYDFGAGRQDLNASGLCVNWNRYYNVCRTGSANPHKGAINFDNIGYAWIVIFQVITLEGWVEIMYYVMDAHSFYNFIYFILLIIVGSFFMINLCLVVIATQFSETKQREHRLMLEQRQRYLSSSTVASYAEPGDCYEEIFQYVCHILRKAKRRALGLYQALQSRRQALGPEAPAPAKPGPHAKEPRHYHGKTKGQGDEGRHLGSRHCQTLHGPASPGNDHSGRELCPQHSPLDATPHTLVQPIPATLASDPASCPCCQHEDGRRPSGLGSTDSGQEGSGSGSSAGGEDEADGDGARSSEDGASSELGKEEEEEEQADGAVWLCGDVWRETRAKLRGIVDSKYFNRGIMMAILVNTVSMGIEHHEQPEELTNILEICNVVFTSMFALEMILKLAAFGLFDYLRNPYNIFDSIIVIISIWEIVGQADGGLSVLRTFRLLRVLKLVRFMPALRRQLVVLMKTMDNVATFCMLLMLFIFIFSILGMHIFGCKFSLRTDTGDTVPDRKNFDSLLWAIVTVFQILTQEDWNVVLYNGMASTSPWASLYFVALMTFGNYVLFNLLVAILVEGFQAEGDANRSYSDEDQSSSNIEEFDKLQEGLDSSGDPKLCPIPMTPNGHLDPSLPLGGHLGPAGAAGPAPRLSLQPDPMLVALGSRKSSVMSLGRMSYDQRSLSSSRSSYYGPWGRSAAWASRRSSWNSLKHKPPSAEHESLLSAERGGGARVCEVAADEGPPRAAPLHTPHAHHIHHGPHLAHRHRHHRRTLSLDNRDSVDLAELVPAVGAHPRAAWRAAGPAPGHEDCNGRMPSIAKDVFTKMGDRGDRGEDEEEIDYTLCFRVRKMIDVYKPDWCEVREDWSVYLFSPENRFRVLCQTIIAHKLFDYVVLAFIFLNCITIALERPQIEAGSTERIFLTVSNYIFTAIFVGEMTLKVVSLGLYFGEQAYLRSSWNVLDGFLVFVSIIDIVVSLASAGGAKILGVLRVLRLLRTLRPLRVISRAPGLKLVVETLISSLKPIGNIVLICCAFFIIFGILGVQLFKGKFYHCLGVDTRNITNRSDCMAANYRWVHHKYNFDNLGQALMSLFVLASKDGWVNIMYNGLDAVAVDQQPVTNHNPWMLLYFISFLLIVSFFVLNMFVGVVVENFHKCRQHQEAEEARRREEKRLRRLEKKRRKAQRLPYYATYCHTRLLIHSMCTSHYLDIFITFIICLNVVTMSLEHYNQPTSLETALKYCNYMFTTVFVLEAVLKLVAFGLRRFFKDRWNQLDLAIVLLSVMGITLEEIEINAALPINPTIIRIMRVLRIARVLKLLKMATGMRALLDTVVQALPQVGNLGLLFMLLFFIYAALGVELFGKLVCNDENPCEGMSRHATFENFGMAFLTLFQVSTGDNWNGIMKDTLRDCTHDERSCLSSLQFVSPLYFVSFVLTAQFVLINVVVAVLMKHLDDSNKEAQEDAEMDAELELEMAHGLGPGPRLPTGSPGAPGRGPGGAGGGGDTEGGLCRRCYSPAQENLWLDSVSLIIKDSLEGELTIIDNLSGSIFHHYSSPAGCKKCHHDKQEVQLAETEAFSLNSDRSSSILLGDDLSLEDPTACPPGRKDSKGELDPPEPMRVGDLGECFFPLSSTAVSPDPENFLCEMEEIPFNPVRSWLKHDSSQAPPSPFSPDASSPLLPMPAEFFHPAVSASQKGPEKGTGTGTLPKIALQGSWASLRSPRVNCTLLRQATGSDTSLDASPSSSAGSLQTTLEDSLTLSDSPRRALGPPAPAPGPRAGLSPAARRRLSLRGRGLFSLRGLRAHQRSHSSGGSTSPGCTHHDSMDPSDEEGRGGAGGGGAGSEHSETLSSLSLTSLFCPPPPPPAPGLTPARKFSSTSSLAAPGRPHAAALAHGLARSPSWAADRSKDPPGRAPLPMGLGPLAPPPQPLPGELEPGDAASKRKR
hERG, sequence (Q12809 whole entry): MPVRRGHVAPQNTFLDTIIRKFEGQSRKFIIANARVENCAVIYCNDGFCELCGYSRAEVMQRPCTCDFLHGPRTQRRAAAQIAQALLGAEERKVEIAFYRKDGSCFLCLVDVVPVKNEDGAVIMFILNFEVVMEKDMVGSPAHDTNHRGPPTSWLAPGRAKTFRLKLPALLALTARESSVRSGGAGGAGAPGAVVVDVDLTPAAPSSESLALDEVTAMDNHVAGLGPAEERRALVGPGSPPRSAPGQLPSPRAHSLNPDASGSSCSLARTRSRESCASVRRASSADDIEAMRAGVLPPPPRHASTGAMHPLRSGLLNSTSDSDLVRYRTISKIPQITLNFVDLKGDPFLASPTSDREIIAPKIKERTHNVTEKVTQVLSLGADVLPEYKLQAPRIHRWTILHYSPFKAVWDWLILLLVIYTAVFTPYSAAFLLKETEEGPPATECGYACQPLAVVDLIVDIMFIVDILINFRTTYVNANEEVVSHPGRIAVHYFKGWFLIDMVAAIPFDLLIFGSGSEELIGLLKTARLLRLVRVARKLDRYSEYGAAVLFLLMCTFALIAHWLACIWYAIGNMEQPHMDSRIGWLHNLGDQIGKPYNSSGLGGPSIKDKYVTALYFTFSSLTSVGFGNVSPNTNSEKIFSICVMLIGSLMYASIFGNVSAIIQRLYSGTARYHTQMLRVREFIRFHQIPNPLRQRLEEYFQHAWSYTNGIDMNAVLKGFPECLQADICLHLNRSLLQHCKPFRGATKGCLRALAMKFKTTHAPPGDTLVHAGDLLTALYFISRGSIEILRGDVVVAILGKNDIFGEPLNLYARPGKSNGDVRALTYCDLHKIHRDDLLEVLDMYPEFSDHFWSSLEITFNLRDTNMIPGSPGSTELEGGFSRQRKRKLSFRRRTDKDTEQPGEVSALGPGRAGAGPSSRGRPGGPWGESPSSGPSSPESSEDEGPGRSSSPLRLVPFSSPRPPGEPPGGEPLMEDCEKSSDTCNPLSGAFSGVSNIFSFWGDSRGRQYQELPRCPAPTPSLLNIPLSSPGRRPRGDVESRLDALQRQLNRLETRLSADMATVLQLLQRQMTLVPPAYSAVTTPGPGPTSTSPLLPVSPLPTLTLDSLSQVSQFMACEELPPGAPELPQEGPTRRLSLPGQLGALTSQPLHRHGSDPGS
α1I + Kir, sequence (Q9P0X4 whole entry): as the sequence (Q9P0X4 whole entry) above
PGP, sequence (P08183 whole entry): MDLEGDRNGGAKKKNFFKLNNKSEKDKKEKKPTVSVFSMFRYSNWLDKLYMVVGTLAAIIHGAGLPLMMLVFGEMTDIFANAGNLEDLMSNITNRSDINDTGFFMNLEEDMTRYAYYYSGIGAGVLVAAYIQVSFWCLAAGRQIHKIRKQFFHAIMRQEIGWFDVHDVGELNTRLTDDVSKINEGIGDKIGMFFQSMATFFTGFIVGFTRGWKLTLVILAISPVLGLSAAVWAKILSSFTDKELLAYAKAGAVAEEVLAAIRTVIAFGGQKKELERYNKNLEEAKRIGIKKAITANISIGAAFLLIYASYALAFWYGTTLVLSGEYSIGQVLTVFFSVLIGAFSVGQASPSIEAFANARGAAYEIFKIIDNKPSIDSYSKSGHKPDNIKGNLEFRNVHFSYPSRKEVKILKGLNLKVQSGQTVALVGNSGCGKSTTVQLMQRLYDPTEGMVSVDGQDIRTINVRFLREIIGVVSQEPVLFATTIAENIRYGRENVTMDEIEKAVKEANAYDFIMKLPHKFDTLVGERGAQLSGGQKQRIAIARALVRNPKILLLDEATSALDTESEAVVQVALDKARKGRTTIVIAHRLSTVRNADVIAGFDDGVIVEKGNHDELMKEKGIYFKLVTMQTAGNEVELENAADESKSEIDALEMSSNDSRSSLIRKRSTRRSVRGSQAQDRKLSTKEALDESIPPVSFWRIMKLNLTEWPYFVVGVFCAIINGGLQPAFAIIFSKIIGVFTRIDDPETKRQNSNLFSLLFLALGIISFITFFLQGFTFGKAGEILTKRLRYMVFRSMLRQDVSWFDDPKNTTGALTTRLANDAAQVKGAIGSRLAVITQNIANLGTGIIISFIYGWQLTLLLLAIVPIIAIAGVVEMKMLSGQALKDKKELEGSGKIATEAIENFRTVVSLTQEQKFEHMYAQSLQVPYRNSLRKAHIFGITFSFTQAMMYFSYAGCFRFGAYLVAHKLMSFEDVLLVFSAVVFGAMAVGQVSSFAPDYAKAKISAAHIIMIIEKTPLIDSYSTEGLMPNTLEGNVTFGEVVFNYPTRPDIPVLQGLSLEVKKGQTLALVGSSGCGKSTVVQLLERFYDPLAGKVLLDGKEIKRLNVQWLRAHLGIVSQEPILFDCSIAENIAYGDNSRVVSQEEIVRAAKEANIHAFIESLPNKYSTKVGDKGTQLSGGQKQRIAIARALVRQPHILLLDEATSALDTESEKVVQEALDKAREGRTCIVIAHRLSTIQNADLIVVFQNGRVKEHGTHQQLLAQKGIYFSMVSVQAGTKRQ

## C[C@@H](NC(=O)Cc1ccc(C2CC2)cc1)c1ccc(OCC(F)(F)F)cn1 [TTA-A2]
α1I [1]
  IC50: 9 nM
α1I + Kir
  IC50: 296 nM
α1I [2]; −80 mV, read-out: a1I VC (−80 mV)
  IC50: 98 nM
α1I [2]; −100 mV, read-out: α1I VC (−100 mV)
  IC50: 4200 nM
hERG
  IC50: > 10000 nM
L-Type
  IC50: > 10000 nM
N-Type
  IC50: > 10000 nM
Na Channel
  IC50: > 10000 nM
Panlabs
  Panlabs hits >50% @10 uM: 0 hits >50% @10 uM
PGP
  PGP: 0.7
Papp permeability
  Papp: 490 ×10⁻⁶ cm/s
WAG/Rij
  WAG/Rij inhibition: 87% inhibition@4 hr
Pharmacokinetics in rat; IV (DMSO)
  Clp: 6 mL/min/kg
Pharmacokinetics in rat; PO (1% methylcellulose), 10 mpk
  F: 68%
Pharmacokinetics in rat; [4]
  AUC: 46 µM·h
  Cmax: 7600 nM
Pharmacokinetics in rat; plasma, IV (DMSO)
  half-life: 1.6 h
Pharmacokinetics in dog; IV (DMSO)
  Clp: 0.9 mL/min/kg
  T1/2: 11 h
Pharmacokinetics in dog; PO (1% methylcellulose), 1 mpk
  F: 43%
Pharmacokinetics in dog; [5]
  AUC: 23 µM·h
  Cmax: 2100 nM
[3]; IV (DMSO)
  Clp: 17 mL/min/kg
  T1/2: 0.9 h
[3]; PO (1% methylcellulose), 3 mpk
  F: 7%
[3]; [6]
  AUC: 0.6 µM·h
  Cmax: 300 nM
